Data published in patent US9683018B2, “Disulfide cyclic polypeptides for the treatment of heart failure” (priority 2013, dated 2017).
Bridge positions count the residues as written; N and C are the ends. Square brackets hold non-standard residues; d marks the D form. Peptide text beside a SMILES is read from it. pGlu = O=C1CC[C@@H](C(=O)O)N1; d(hCys) = N[C@H](CCS)C(=O)O; dNle = CCCC[C@@H](N)C(=O)O; hCys = N[C@@H](CCS)C(=O)O; Nle = CCCC[C@H](N)C(=O)O; Aib = CC(C)(N)C(=O)O; Inp = O=C(O)C1CCNCC1

Experiments:
[1] = in vitro; conditions: rat, plasma, Surrogate activity-based Plasma stability t½
Procedure: The calcium flux protocol described above was followed, with the following changes. The peptides were also incubated with 5% rat plasma (Bioreclamation # [sequence]-M, Na Heparin-treated). Readings were taken at time points t0 and t24 hrs, after incubation in a 37° C. tissue culture incubator. Peptide plasma half-life in minutes was estimated by calculating the following:
2) Calculate slope of value above and

[2] = target: T1, hAPJ (Homo sapiens, UniProt P35414); assay: hAPJ Calcium Flux Assay; assay type: cell-based; conditions: Chem-5 APJ stable cells, FLIPR calcium flux; read-out: hAPJ Ca2+ Flux EC50
T1 sequence (P35414 1-380): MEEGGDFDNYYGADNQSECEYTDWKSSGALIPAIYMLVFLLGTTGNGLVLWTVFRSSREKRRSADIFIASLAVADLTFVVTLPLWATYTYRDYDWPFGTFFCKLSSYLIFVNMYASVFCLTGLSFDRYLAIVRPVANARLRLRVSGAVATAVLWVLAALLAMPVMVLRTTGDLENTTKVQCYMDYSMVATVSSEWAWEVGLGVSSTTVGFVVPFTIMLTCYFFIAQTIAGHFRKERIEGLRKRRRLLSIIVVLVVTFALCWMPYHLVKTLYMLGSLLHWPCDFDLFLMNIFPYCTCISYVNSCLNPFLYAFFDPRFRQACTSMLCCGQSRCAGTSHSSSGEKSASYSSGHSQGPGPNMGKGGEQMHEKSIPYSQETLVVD
Procedure: Chem-5 APJ stable cells (Millipore # HTS068C) were plated in 384-well format with 10,000 cells/well in 25 ul growth media, then grown 24 hours in a 37° C. tissue culture incubator. One hour before the assay, 25 ul/well FLIPR Calcium 4 dye (Molecular Devices R8142) with 2.5 mM probenecid was added, and cells were incubated one hour in a 37° C. tissue culture incubator. Peptides were solubilized in HBSS, HEPES & 0.1% BSA buffer, and serially-diluted 10-fold, from 50 uM to 5 pM, in triplicate. FLIPR Tetra was used to add peptide to the cells with dye (1:5, for final peptide concentrations ranging from 10 uM to 1 pM). FLIPR dye inside the cells emitted fluorescence after binding to calcium, while fluorescence from outside the cells was masked. Fluorescence was measured using 470-495 excitation and 515-575 emission wavelengths on the FLIPR Tetra. Readings were done for 3 minutes total, beginning 10 seconds before the peptide addition. Maximum-minimum values were calculated and plotted for each peptide concentration, and GraphPad prism software was used to calculate EC50 values at the curve inflection points, for calcium flux stimulation by peptides.

| Compound | half-life [1] | EC50 [2] |
| --- | --- | --- |
| CCCC[C@H]1NC(=O)[C@@H]2CCCN2C(=O)CNC(=O)[C@H](CCCCN)NC(=O)[C@H](Cc2c[nH]cn2)NC(=O)[C@H](CO)NC(=O)[C@@H](NC(=O)[C@H](CCCNC(=N)N)NC(=O)[C@@H]2CCCN2C(=O)[C@H](CCCNC(=N)N)NC(=O)[C@@H]2CCC(=O)N2)CCSSC[C@@H](C(=O)N[C@H](Cc2ccc(O)cc2)C(=O)O)NC1=O [Example 2, pE-R-P-R-hC*-S-H-K-G-P-(D-Nle)-C*-y-OH] ([pGlu]RPR[hCys]SHKGP[dNle]C[dY]-OH; disulfide 5-12) | 52 min | 154 nM |
| CCCC[C@@H]1NC(=O)[C@@H]2CCCN2C(=O)CNC(=O)[C@H](CCCCN)NC(=O)[C@@H](NC(=O)[C@H](CO)NC(=O)[C@H](CC(C)C)NC(=O)[C@H](CCCNC(=N)N)NC(=O)[C@@H]2CCCN2C(=O)[C@H](CCCNC(=N)N)NC(=O)[C@@H]2CCC(=O)N2)CSSCC[C@H](C(=O)N[C@@H](Cc2ccccc2)C(=O)O)NC1=O [Example 4, pE-R-P-R-L-S-C*-K-G-P-Nle-(D-hC)*-F-OH] ([pGlu]RPRLSCKGP[Nle][d(hCys)]F-OH; disulfide 7-12) | 24.2 min | 406 nM |
| CCCC[C@@H]1NC(=O)[C@@H]2CCCN2C(=O)CNC(=O)[C@H](CCCCN)NC(=O)[C@H](NC(=O)[C@H](CO)NC(=O)[C@H](CC(C)C)NC(=O)[C@H](CCCNC(=N)N)NC(=O)[C@@H]2CCCN2C(=O)[C@H](CCCNC(=N)N)NC(=O)[C@@H]2CCC(=O)N2)CSSCC[C@H](C(=O)N[C@@H](Cc2ccccc2)C(=O)O)NC1=O [Example 5, pE-R-P-R-L-S-c*-K-G-P-Nle-(D-hC)*-F-OH] ([pGlu]RPRLS[dC]KGP[Nle][d(hCys)]F-OH; disulfide 7-12) | 1430 min | 981 nM |
| CCCC[C@@H]1NC(=O)[C@@H]2CCCN2C(=O)CNC(=O)[C@H](CCCCN)NC(=O)[C@@H](NC(=O)[C@H](CO)NC(=O)[C@H](CC(C)C)NC(=O)[C@H](CCCNC(=N)N)NC(=O)[C@@H]2CCCN2C(=O)[C@H](CCCNC(=N)N)NC(=O)[C@@H]2CCC(=O)N2)CCSSCC[C@H](C(=O)N[C@@H](Cc2ccccc2)C(=O)O)NC1=O [Example 6, pE-R-P-R-L-S-hC*-K-G-P-Nle-(D-hC)*-F-OH] ([pGlu]RPRLS[hCys]KGP[Nle][d(hCys)]F-OH; disulfide 7-12) | 12.5 min | 92.8 nM |
| CCCC[C@@H]1NC(=O)[C@@H]2CCCN2C(=O)CNC(=O)[C@H](CCCCN)NC(=O)[C@H](NC(=O)[C@H](CO)NC(=O)[C@H](CC(C)C)NC(=O)[C@H](CCCNC(=N)N)NC(=O)[C@@H]2CCCN2C(=O)[C@H](CCCNC(=N)N)NC(=O)[C@@H]2CCC(=O)N2)CCSSCC[C@H](C(=O)N[C@@H](Cc2ccccc2)C(=O)O)NC1=O [Example 7, pE-R-P-R-L-S-(D-hC)*-K-G-P-Nle-(D-hC)*-F-OH] ([pGlu]RPRLS[d(hCys)]KGP[Nle][d(hCys)]F-OH; disulfide 7-12) | 121 min | 781 nM |
| CCCC[C@@H]1NC(=O)[C@@H]2CCCN2C(=O)CNC(=O)[C@H](CCCCN)NC(=O)[C@H](NC(=O)[C@H](CO)NC(=O)[C@H](CC(C)C)NC(=O)[C@H](CCCNC(=N)N)NC(=O)[C@@H]2CCCN2C(=O)[C@H](CCCNC(=N)N)NC(=O)[C@@H]2CCC(=O)N2)CCSSC[C@@H](C(=O)N[C@@H](Cc2ccccc2)C(=O)O)NC1=O [Example 8, pE-R-P-R-L-S-(D-hC)*-K-G-P-Nle-C*-F-OH] ([pGlu]RPRLS[d(hCys)]KGP[Nle]CF-OH; disulfide 7-12) | 77.7 min | 613 nM |
| CCCC[C@@H]1NC(=O)[C@@H]2CCCN2C(=O)CNC(=O)[C@H](CCCCN)NC(=O)[C@H](NC(=O)[C@H](CO)NC(=O)[C@H](CC(C)C)NC(=O)[C@H](CCCNC(=N)N)NC(=O)[C@@H]2CCCN2C(=O)[C@H](CCCNC(=N)N)NC(=O)[C@@H]2CCC(=O)N2)CCSSCC[C@@H](C(=O)N[C@@H](Cc2ccccc2)C(=O)O)NC1=O [Example 9, pE-R-P-R-L-S-(D-hC)*-K-G-P-Nle-hC*-F-OH] ([pGlu]RPRLS[d(hCys)]KGP[Nle][hCys]F-OH; disulfide 7-12) | 57 min | 1030 nM |
| CCCC[C@@H]1NC(=O)[C@@H]2CCCN2C(=O)CNC(=O)[C@H](CCCCN)NC(=O)[C@H](NC(=O)[C@H](CO)NC(=O)[C@H](CC(C)C)NC(=O)[C@H](CCCNC(=N)N)NC(=O)[C@@H]2CCCN2C(=O)[C@H](CCCNC(=N)N)NC(=O)[C@@H]2CCC(=O)N2)CCSSC[C@@H](C(=O)O)NC1=O [Example 10, pE-R-P-R-L-S-(D-hC)*-K-G-P-Nle-C*-OH] ([pGlu]RPRLS[d(hCys)]KGP[Nle]C-OH; disulfide 7-12) | 98.6 min | 976 nM |
| CCCC[C@@H]1NC(=O)[C@@H]2CCCN2C(=O)CNC(=O)[C@H](CCCCN)NC(=O)[C@@H](NC(=O)[C@H](CO)NC(=O)[C@H](CC(C)C)NC(=O)[C@H](CCCNC(=N)N)NC(=O)[C@@H]2CCCN2C(=O)[C@H](CCCNC(=N)N)NC(=O)[C@@H]2CCC(=O)N2)CSSC[C@H](C(=O)N[C@@H](Cc2ccccc2)C(=O)O)NC1=O [Example 11, pE-R-P-R-L-S-C*-K-G-P-Nle-c*-F-OH] ([pGlu]RPRLSCKGP[Nle][dC]F-OH; disulfide 7-12) | 137 min | 113 nM |
| CCCC[C@@H]1NC(=O)[C@@H]2CCCN2C(=O)CNC(=O)[C@H](CCCCN)NC(=O)[C@@H](NC(=O)[C@H](CO)NC(=O)[C@H](CC(C)C)NC(=O)[C@H](CCCNC(=N)N)NC(=O)[C@@H]2CCCN2C(=O)[C@H](CCCNC(=N)N)NC(=O)[C@@H]2CCC(=O)N2)CSSCC[C@@H](C(=O)N[C@@H](Cc2ccccc2)C(=O)O)NC1=O [Example 12, pE-R-P-R-L-S-C*-K-G-P-Nle-hC*-F-OH] ([pGlu]RPRLSCKGP[Nle][hCys]F-OH; disulfide 7-12) | 70 min | 81.7 nM |
| CCCC[C@@H]1NC(=O)[C@@H]2CCCN2C(=O)CNC(=O)[C@H](CCCCN)NC(=O)[C@@H](NC(=O)[C@H](CO)NC(=O)[C@H](CC(C)C)NC(=O)[C@H](CCCNC(=N)N)NC(=O)[C@@H]2CCCN2C(=O)[C@H](CCCNC(=N)N)NC(=O)[C@@H]2CCC(=O)N2)CCSSCC[C@@H](C(=O)N[C@@H](Cc2ccccc2)C(=O)O)NC1=O [Example 13, pE-R-P-R-L-S-hC*-K-G-P-Nle-hC*-F-OH] ([pGlu]RPRLS[hCys]KGP[Nle][hCys]F-OH; disulfide 7-12) | 104 min | 760 nM |
| CCCC[C@@H]1NC(=O)[C@@H]2CCCN2C(=O)[C@@H](NC(=O)[C@H](CCCCN)NC(=O)[C@@H](C)NC(=O)[C@H](CO)NC(=O)[C@H](CC(C)C)NC(=O)[C@H](CCCNC(=N)N)NC(=O)[C@@H]2CCCN2C(=O)[C@H](CCCNC(=N)N)NC(=O)[C@@H]2CCC(=O)N2)CSSC[C@@H](C(=O)N[C@H](Cc2ccccc2)C(=O)O)NC1=O [Example 16, pE-R-P-R-L-S-a-K-C*-P-Nle-C*-f-OH] ([pGlu]RPRLS[dA]KCP[Nle]C[dF]-OH; disulfide 9-12) | 323 min | 33.2 nM |
| CCCC[C@@H]1NC(=O)[C@@H]2CCCN2C(=O)[C@@H](NC(=O)[C@H](CCCCN)NC(=O)[C@H](Cc2c[nH]cn2)NC(=O)[C@@H](C)NC(=O)[C@H](CC(C)C)NC(=O)[C@H](CCCNC(=N)N)NC(=O)[C@@H]2CCCN2C(=O)[C@H](CCCNC(=N)N)NC(=O)C2CCNCC2)CSSC[C@@H](C(=O)N[C@H](Cc2ccccc2)C(=O)O)NC1=O [Example 18, Isonipecotoyl-R-P-R-L-a-H-K-C*-P-Nle-C*-f-OH] (H-[Inp]RPRL[dA]HKCP[Nle]C[dF]-OH; disulfide 9-12) | 990 min | 2.3 nM |
| CCCC[C@@H]1NC(=O)[C@@H]2CCCN2C(=O)[C@@H](NC(=O)[C@H](CCCCN)NC(=O)C(C)(C)NC(=O)[C@@H](C)NC(=O)[C@H](CC(C)C)NC(=O)[C@H](CCCNC(=N)N)NC(=O)[C@@H]2CCCN2C(=O)[C@H](CCCNC(=N)N)NC(=O)[C@@H]2CCC(=O)N2)CSSC[C@@H](C(=O)N[C@H](Cc2ccccc2)C(=O)O)NC1=O [Example 19, pE-R-P-R-L-a-Aib-K-C*-P-Nle-C*-f-OH] ([pGlu]RPRL[dA][Aib]KCP[Nle]C[dF]-OH; disulfide 9-12) | 2180 min | 72.3 nM |
| CCCC[C@@H]1NC(=O)[C@@H]2CCCN2C(=O)[C@@H](NC(=O)[C@H](CCCCN)NC(=O)C(C)(C)NC(=O)[C@H](CO)NC(=O)[C@H](CC(C)C)NC(=O)[C@H](CCCNC(=N)N)NC(=O)[C@@H]2CCCN2C(=O)[C@H](CCCNC(=N)N)NC(=O)[C@@H]2CCC(=O)N2)CSSC[C@@H](C(=O)N[C@H](Cc2ccccc2)C(=O)O)NC1=O [Example 20, pE-R-P-R-L-S-Aib-K-C*-P-Nle-C*-f-OH] ([pGlu]RPRLS[Aib]KCP[Nle]C[dF]-OH; disulfide 9-12) | 331 min | 6.1 nM |
